Data on 11 molecules can be found in EP0135770A2, “Imidazobenzodiazepine derivatives, process for their preparation and medicaments containing them” (F. HOFFMANN-LA ROCHE & CO. Aktiengesellschaft, priority 1983, dated 1985).

The subject of data set [1] is CF-1-Mäuse. Kind of data set: Rotating rod test (Rotierstabtest), mice observed 30 min after dosing. In kind it is in vivo. The source says: Dieser Test ist eine Modifikation der von N.W. Dunham und T.S. Miya in J.A. Ph. A. Sci. Ed. 46, 208 (1957) beschriebenen Methode. CF-1-Mäuse, welche aufgrund ihrer Fähigkeit ausgewählt worden sind, sich während 2 Minuten auf einem Rotierstab von 30 mm Durchmesser und 16 Umdrehungen pro Minute halten zu können, werden verwendet. Gruppen von je 8 Mäusen werden 30 Minuten nach Verabreichung der Testverbindung auf den Rotierstab verbracht und während 2 Minuten beobachtet. Diejenigen Mäuse, die sich nicht während der vollen 2 Minuten auf dem Rotierstab halten können, werden als durch die Testverbindung beeinflusst qualifiziert. Die Anzahl derjenigen Mäuse, die sich auf dem Rotierstab nicht halten können, wird in Prozent der Gesamtanzahl Mäuse in jeder Gruppe bei den verschiedenen Dosen angegeben. Diese Prozentwerte werden gegen die Dosis auf logarithmischem Papier aufgezeichnet, und der ED5o-Wert wird nach der Methode von L.C. Miller und M.L. Tainter in Proc. Soc. Exp. Biol. Med. 57, 26 (1944) ermittelt.
Der Zweck des vorliegenden Tests ist die Ueberprüfung von chemischen Verbindungen im Hinblick auf ihre Wirkung auf den Muskeltonus und/oder die muskuläre Koordination. speziell diejenige von Muskelrelaxantien, Sedativa oder Stimulantien.

The subject of data set [2] is CF-1-Mäuse. Kind of data set: Intravenous antimetrazol test (Intravenöser Antimetrazoltest), protection against Metrazol convulsions. In kind it is in vivo. Conditions: Mus musculus, 1 h, oral dosing, Metrazol 70 mg/kg i.v. one hour later, 50% of animals without convulsions. The procedure: Männliche CF-1-Mäuse, welche 45-54 Tage alt sind und während ungefähr 24 Stunden vom Futter ferngehalten wurden, werden in diesem Test eingesetzt. Die Testverbindung, dispergiert in 5% Akazienöl, wird 3 Mäusen oral verabreicht und zwar bei einer Dosis, die 1/10 der im TSP-Test ermittelten Lethaldosis entspricht. Eine Stunde später wird Metrazol intravenös verabreicht (70 mg/kg: konvulsive Dosis 100 mg/kg) und die Versuchstiere während 30 Sekunden beobachtet, ob ein Schutz gegenüber den Krampfanfällen eintritt. Falls die Testverbindung oral aktiv ist, werden pro Dosis 3 Versuchstiere eingesetzt. Die Dosis, bei der 50% der Versuchstiere keinerlei Krampfanfälle erleiden, wird als ED50-Wert bezeichnet.
Gemacht Messungen: Die Anzahl der Versuchstiere, welche gegen Krampfanfälle geschützt sind.
Berechnun^qen: Falls die Prüfsubstanz aktiv ist und 3 Mäuse pro Dosis eingesetzt werden, wird der approximative ED -Wert nach der Methode von Miller und Tainter (Proc. Soc. Exp. Biol. med. 57:261 (1944)) berechnet. Falls 6 oder mehr Mäuse pro Dosis eingesetzt werden, wird der ED50--Wert sowie der 95%ige Vertrauensbereich mit Hilfe eines Computerprogramms berechnet, welches auf der Methode von D.J. Finney (Probit Analysis, Cambridge University Press. Cambridge, England, 1971) beruht.
Dieser Test eignet sich zur Evaluation von Antikonvulsiva und ist für eine Aussage bezüglich der anxiolytischen Wirkung relevant.

Where [3] appears, read: Mus musculus, po, 0.5 h, compounds of the invention, mice unable to stay 2 min on the rotating rod, 30 min after administration, read-out: ED50.
[4] abbreviates: Mus musculus, po, 0.5 h, standard compounds, mice unable to stay 2 min on the rotating rod, 30 min after administration, read-out: ED50.

As to `NC(=O)c1ncn2c1CN=C(c1ccccc1Cl)c1ccccc1-2` [Beispiel 27, 6-(2-Chlorphenyl)-4H-imidazo[1,5-a][1,4]benzodiazepin-3-carboxamid], the ED50 is over 200 mg/kg with CF-1-Mäuse [1] (setting [3]) and 7.4 mg/kg in the data set with CF-1-Mäuse [2] (compounds of the invention).

With `NC(=O)c1ncn2c1CN=C(c1ccccc1Cl)c1ccc(Cl)cc1-2` [Beispiel 31, 9-Chlor-6-(2-chlorphenyl)-4H-imidazo[1,5-a][1,4]benzodiazepin-3-carboxamid], the ED50 with CF-1-Mäuse [1] (setting [3]) was over 200 mg/kg; in the data set with CF-1-Mäuse [2] (compounds of the invention), 0.97 mg/kg.

In the case of `Cc1nc(C(N)=O)c2n1-c1ccccc1C(c1ccccc1Cl)=NC2` [Beispiel 63, 6-(2-Chlorphenyl)-1-methyl-4H-imidazo[1,5-a][1,4]benzodiazepin-3-carboxamid], the ED50 with CF-1-Mäuse [1] (setting [3]) is over 200 mg/kg; in the data set with CF-1-Mäuse [2] (compounds of the invention), 5.1 mg/kg.

Take `CC(=O)NC(=O)c1ncn2c1CN=C(c1ccccc1Cl)c1ccccc1-2` [Beispiel 68, N-Acetyl-6-(2-chlorphenyl)-4H-imidazo[1,5-a][1,4]benzodiazepin-3-carboxamid]: in the data set with CF-1-Mäuse [2] (compounds of the invention), the ED50 turned out to be 1.3 mg/kg.

As to `NC(=O)c1ncn2c1C(O)N=C(c1ccccc1Cl)c1ccccc1-2` (centres unmarked) [Beispiel 72, 6-(2-Chlorphenyl)-4-hydroxy-4H-imidazo[1,5-a][1,4]benzodiazepin-3-carboxamid], the values for the ED50 with CF-1-Mäuse [1] (setting [3]) and in the data set on CF-1-Mäuse [2] (compounds of the invention) were over 200 mg/kg and 0.86 mg/kg, respectively.

Regarding `CNC1=Nc2ccc(Cl)cc2C(c2ccccc2)=[N+]([O-])C1` [Chlordiazepoxyd, reference compound], the ED50 is 33.5 mg/kg with CF-1-Mäuse [1] (setting [4]) and 3.9 mg/kg in the data set on CF-1-Mäuse [2] (standard compounds).

For `CN(C)CCCN1c2ccccc2Sc2ccc(Cl)cc21` [Chlorpromazin, reference compound], the ED50 with CF-1-Mäuse [1] (setting [4]) stood at 10 mg/kg.

For the molecule `CN1C(=O)CN=C(c2ccccc2)c2cc(Cl)ccc21` [Diazepam, reference compound], the ED50 with CF-1-Mäuse [1] (Mus musculus, po, 0.5 h) was 7.4 mg/kg; in the data set with CF-1-Mäuse [2] (standard compounds), 1 mg/kg.

Regarding `COc1ccc2c(c1)N(C[C@H](C)CN(C)C)c1ccccc1S2` [Methotrimeprazin, reference compound], the ED50 in the data set on CF-1-Mäuse [1] (setting [4]) turned out to be 3.8 mg/kg.

`CCC1(c2ccccc2)C(=O)NC(=O)NC1=O` [Natriumphenobarbital, reference compound] came in with an ED50 in the data set with CF-1-Mäuse [2] (standard compounds) of 19 mg/kg.

In the case of “N-Acetyl-6-(2-chlorphenyl)-4H-imidazo-[1,5-a][1,4]benzodiazepin-3-carboxamid-acetylester”, the ED50 in the data set on CF-1-Mäuse [1] (compounds of the invention, mice unable to stay 2 min on the rotating rod, 30 min after administration) is over 200 mg/kg p.o.
